Test results published in patent US10765755B1, “Preparation and characterization of methylene blue nanoparticles for Alzheimer's disease and other tauopathies” (University of South Florida, priority 2013, dated 2020).

Columns and labels:
[1] = tested on: co-culture of rat brain endothelial 4 (RBE4) and C6 astrocytoma cells; assay: In vitro blood-brain barrier Transwell permeation assay; assay type: in vitro ADME; conditions: 10 μM, 0, 3, 6 and 24 hours, UV 600 nm, n=3
Method: Transwell Permeable Supports (CORNING) with a 0.4 μm pore size were purchased to investigate the permeability of MB nanoparticles across the blood-brain barrier (BBB) (FIG. 5). Each side was coated with 0.1% rat tail collagen I solution diluted from the purchased 100 mg solution (Collagen I, rat tail, 100 mg, BD BIOSCIENCES), left under the hood to adhere to the support for 1 hour, and washed with […] of 1×PBS after aspiration of the remaining collagen solution. The media used was a 1:1 solution of Ham's F10:MEM media (CELLGRO) supplemented with 10% fetal bovine serum (FBS) (INVITROGEN), 1% penicillin and streptomycin (CELLGRO), 0.4 mL of 1 ng/mL human recombinant diluted basic fibroblast growth factor (bFGF) (BD Biosciences), 5 mL of HEPES buffer (FISHER), and 2 mL of a 200 mM stock of L-glutamine (MEDIATECH). 1.5 mL of media was added surrounding the support, and 0.5 mL was added inside the support. This was left to incubate in the incubator (37° C. and 5% CO2) for 24 hours.
After 24 hours, the media was aspirated from the plates. […]
Subsequently, the media was aspirated and replaced with equal amounts of 1% FBS experimental media. […] The samples were quantified by UV spectrometry in the SYNERGY H4 plate reader (BIOTEK INSTRUMENTS Inc.) at a wavelength of 600 nm. Data was quantified in triplicates and averaged (n=3).

[2] = tested on: human Tau stably over-expressed in HeLa cells; assay: Tau levels by immunoblotting in HeLa cells overexpressing tau; assay type: cell-based; conditions: HeLa cells over-expressing tau, 5 μM and 10 μM, 24 hours, immunoblot
Method: (§1) Endogenous Tau expressing human neuroblastoma SHSY5Y cells and Hela cells stably overexpressing wild-type human tau were maintained in OptiMEM media supplemented with fetal bovine serum and antibiotic solution as described previously. In six-well plates, cells were treated with control or MB-NPs for 24 hours. Cells were harvested and processed for immunoblotting as described previously.
(§2) To test the functionality of newly generated NPs, two different cell culture-based AD models were utilized. Endogenously tau expressing SHSHY neuronal cells and stably tau overexpressing HeLa cells were treated with 5 μM and 10 μM of MB-NPs, coated MB-NPs, control NPs, vehicle, and/or drug MB-solution for 24 hours. Cells were harvested, and samples were analyzed for tau levels by immunoblotting (FIG. 4).

[3] = tested on: endogenous Tau in human neuroblastoma SHSY-5Y cells; assay: Tau levels by immunoblotting in SHSY-5Y cells; assay type: cell-based; conditions: 5 μM and 10 μM, 24 hours, immunoblot
Method: as §1, §2

Permeation across simulated BBB (in words) [1]: remained relatively constant
Compound: CN(C)c1ccc2nc3ccc(=[N+](C)C)cc-3sc2c1 [MB solution, Methylene blue]
Reduction in tau level (in words) [2]: reduce tau levels slightly higher at 10 μM compared to 5 μM
Reduction in tau level (in words) [3]: reduce tau levels slightly higher at 10 μM compared to 5 μM
